In patent publication US8481005B2, “Methods to prevent cytotoxicity using N-acetyl-cysteine” (priority 2006, dated 2013):

Columns and labels:
[1] = tested on: GAPDH; test: GAPDH protein in dental pulp stromal cells (KDalert GAPDH assay kit); format: cell-based; conditions: HEMA (0.082M) alone or with NAC 20 mM, 4 hours
Procedure: After 4 hours of incubation the protein levels of GAPDH were determined using a KDalert GAPDH assay kit (Ambion). This assay is a fluorescent based assay which measures the conversion of NAD+ to NADH catalyzed by GAPDH.

[2] = tested on: RAW 264.7 cells; test: Morphological changes in RAW 264.7 cells (inverted microscope); format: cell-based, murine; conditions: HEMA alone or with simultaneous NAC 20 mM, overnight
Description: Peripheral Blood Mononuclear Cells

[3] = tested on: caspases 9 and 3; test: Full length caspases 9 and 3 in HEp2 cells (Western blot); format: cell-based; conditions: 0.0164M HEMA about 18 hours
Procedure: Protein concentrations were determined by a DC protein assay kit (Bio-Rad, Hercules, Calif.). An aliquot of total protein lysate was diluted in an equal volume of about 2% SDS sample buffer, about 6.2 mM Tris (pH about 6.8), about 2.3% SDS, about 5% mercaptoethanol, about 10% glycerol, and about 0.02% bromophenol blue and boiled for about 10 minutes. The cell lysates (40 μg) were then electrophoresed on 12% SDS-PAGE gels and were subjected to Western blot analysis. Levels of β-tubulin and actin were used to normalize the protein expression. Relative concentrations were assessed by densitometric analysis of digitized autographic images. The anti-actin and anti-β-tubulin monoclonal antibodies were purchased from Santa Cruz Biotechnology (Santa Cruz, Calif.) and from Calbiochem (San Francisco, Calif.) respectively. The polyclonal antibodies anti-caspase 3 and anti-caspase 9, were obtained from Cell Signaling (San Diego, Calif.). […] Decreased Processing and Cleavage of Caspase 3 in the Presence of NAC

[4] = tested on: RAW 264.7 cells
Procedure: (§1) RAW 264.7 cells (murine macrophages) were obtained from American Type Culture Collection (ATCC) and were cultured in a 5% CO2 atmosphere in DMEM (purchased from Cellgro (Herndon, Va.)) containing 10% FCS, 1% penicillin-streptomycin, 1% sodium pyruvate, 1% non essential amino acids and 1% glutamine. THP-1 cells (human macrophages) were obtained from ATCC and were cultured under the same conditions, with RMPI 1640 containing 10% FCS, 1% penicillin-streptomycin, 1% sodium pyruvate and 1% non essential amino acids.
(§2) Dose-dependent apoptosis was measured by FITC-Annexin V/Propidium iodide kits (Miami, Fla.). Cells were plated in six-well/twelve well plates. […] Cells were washed twice with PBS and centrifuged at about 2000 rpm for about 5 minutes and resuspended in binding buffer (provided in the kit) along with FITC-Annexin V/Propidium iodide (PI) according to manufacturer's instructions. After incubating on ice (light protected) for about 15 minutes, samples were analyzed by flow cytometry. Flow cytometric analysis was performed using a flow cytometer equipped with a single 488-nm argon laser. Dead cell fragments were gated out by forward and side scatter analysis. […] Forward and side scatter were used to gate out cellular fragments.
(§3) After an overnight incubation, the levels of cell death were determined using PI staining of ethanol fixed cells. Specifically, cells were washed twice with PBS before they were treated with 70% ethanol (250 μl). Ethanol was added dropwise and then the cells were incubated on ice for 30 minutes. The cells were then washed twice with PBS and resuspended in 1 ml PBS to which PI at a final concentration of 1 mg/ml was added. The samples were then analyzed using the flow cytometer.
(§4) In FIGS. 2A and 2B, the numbers in each histogram represent the percentage of Sub Go/G1 fragmented cell populations. Ten thousand events were analyzed for each sample.

[5] = tested on: THP-1 cells
Procedure: as §1, §2, §3, §4

[6] = tested on: human dental pulp stromal cells; test: Human dental pulp stromal cells, 4 hour treatment: VEGF ELISA and apoptosis; format: cell-based; conditions: HEMA alone or with NAC 20 mM, then overnight
Procedure: After this treatment cells were washed and incubated overnight.

[7] = tested on: human smooth muscle cells; test: VEGF secretion of human smooth muscle cells (ELISA); format: cell-based; conditions: HEMA (0.082M) alone or with NAC 20 mM, 4 hours, then overnight
[8] = tested on: human dental pulp stromal cells; test: VEGF by ELISA, human dental pulp stromal cells, NAC versus vitamin E (Table 5); format: cell-based; conditions: 4 hours
Procedure: Following the 4 hour incubation, cells were analyzed for apoptosis using FTIC-Annexin V and PI.
Dental pulp stromal cells were then treated as described in the preceding paragraph with supernatants removed and assayed for VEGF levels by ELISA following the 4 hour incubation.

[9] = tested on: gingival cells; test: PI/FITC-Annexin V cell survival of rat gingival cells; format: cell-based; conditions: 0.0164M-0.00164M HEMA with NAC 20 mM, about 12-14 hours, versus HEMA alone
Procedure: Rat gingival cells were obtained from 8 week old male rats and cultured in DMEM supplemented with 10% FBS, 1% antibiotic-antimycotic, 1% sodium pyruvate and 1% non-essential amino acids. […] Cell survival was measured by PI/FITC-Annexin V staining as described previously.

[10] = tested on: teeth and surrounding tissue; test: Rat tooth bleaching with or without NAC: photographs of teeth and tissue; format: in vivo
Procedure: Rats were divided into the following groups: A: control, unbleached; B: bleached with no NAC; and C: Bleached with NAC. The bleaching agent used in the following studies was Oral B Rembrandt whitening system (containing 33% hydrogen peroxide and carbamide) often used in dental offices (chair side). NAC was initially painted on teeth at a 20 mM concentration for 5 minutes. Next a bleaching agent was applied for 5 hours, after which the teeth were extracted, and pulp was obtained from each group and treated with trypsin/EDTA (0.25%) and collagenase (0.02%). […] Also note that bleaching in the presence of NAC (F) was as effective as bleaching without the NAC (E). […] Note the white tissue in the absence of NAC which represents dead and dying tissue.

[11] = tested on: gingival cells; test: Bleaching agent on rat palatal gingiva: gingival cell growth; format: in vivo, rats; conditions: bleaching agent on palatal gingiva 5 hours, without or with NAC; cells grown 21 days
Procedure: For gingival cells, the bleaching agent was applied in the same order of experimental groups to the palatal gingiva for 5 hours, washed and excised and minced and treated with collagenase (0.01%) for 48 hours before the single cell suspensions were prepared by washing and resuspending in DMEM. The cells were allowed to grow to confluency for 21 days before photographs were taken. […] FIG. 46 provides a graphical representation of cell survival.

[12] = NAC 20 mM pretreatment about 8 hours or simultaneous, overnight

Row | SMILES | GAPDH protein expression [1] | morphological changes (decreased size, blebbing, apoptotic bodies) [2] | full length caspases 9 and 3 levels [3] | HEMA-mediated cell death and cytotoxicity (FITC-Annexin V/PI) ([4]; HEMA about 18 hours) | HEMA-mediated cell death and cytotoxicity (FITC-Annexin V/PI) ([5]; HEMA about 18 hours) | VEGF secretion [6] | cell death [6] | VEGF secretion [7] | VEGF levels by ELISA, Human dental pulp stromal cells ([8]; HEMA 0.00164M, alone or with NAC and/or vitamin E) | VEGF levels by ELISA, Human dental pulp stromal cells ([8]; HEMA 0.0082M, alone or with NAC and/or vitamin E) [pg/mL] | VEGF levels by ELISA, Human dental pulp stromal cells ([8]; HEMA 0.0164M, alone or with NAC (20 mM) and/or vitamin E (5 mM)) | viable cells after HEMA exposure [9] | inhibition of HEMA-mediated cell death (Sub Go/G1, PI staining) [4, 12] | inhibition of HEMA-mediated cell death (Sub Go/G1, PI staining) [5, 12] | efficacy or potency of the bleaching system ([10]; NAC 20 mM painted on teeth 5 minutes, then bleaching agent 5 hours) | white (dead and dying) tissue after bleaching ([10]; bleaching agent 5 hours, without or with NAC 20 mM) | VEGF levels by ELISA, Human dental pulp stromal cells ([8]; no HEMA, NAC (20 mM) and/or vitamin E (5 mM)) | gingival cell death [11]
1 | C=C(C)C(=O)OCCO [HEMA, hydroxyethyl methacrylate] | significant decrease in GAPDH protein expression | morphological changes indicative of apoptosis | diminishes full length caspases 9 and 3 levels | detected at millimole to micromole concentrations | detected at millimole to micromole concentrations | large effects | large effects | significantly reduced VEGF secretion | 57.26 | 72.6 | 73.79 |  |  |  |  |  |  | 
2 | CC(=O)N[C@@H](CS)C(=O)O [NAC, N-acetyl-cysteine] | preventing the decrease in GAPDH protein expression | inhibited the occurrence of these morphological changes | inhibits HEMA-mediated decrease in caspases 9 and 3 |  |  | strongly if not totally ameliorated | strongly if not totally ameliorated | could be reversed |  |  |  | higher number of viable cells | inhibited HEMA-mediated cell death | inhibited HEMA-mediated cell death | does not decrease the efficacy or potency of the bleaching system | the amount of white tissue is minimal | 1532.4 | ameliorated
